The target of assay [1] is T1, mouse μ opioid receptor (Mus musculus, UniProt P42866). The assay can be described thus: cell-based. To be noted: for Emax: HEK293, read-out: Max Inhibition.
Assay [2] has as its target T1, mouse μ opioid receptor. The assay is described as follows: biochemical. It counts as binding.

Where two headings read alike, the source gives them in different places.

For orientation: IC50 means the concentration needed to halve the response being measured. As a reminder, the Ki is the dissociation constant of the complex between target and ligand, obtained from inhibition or displacement. The low end stands for tighter binding, the high end for weaker binding.

T1 sequence (P42866 whole entry): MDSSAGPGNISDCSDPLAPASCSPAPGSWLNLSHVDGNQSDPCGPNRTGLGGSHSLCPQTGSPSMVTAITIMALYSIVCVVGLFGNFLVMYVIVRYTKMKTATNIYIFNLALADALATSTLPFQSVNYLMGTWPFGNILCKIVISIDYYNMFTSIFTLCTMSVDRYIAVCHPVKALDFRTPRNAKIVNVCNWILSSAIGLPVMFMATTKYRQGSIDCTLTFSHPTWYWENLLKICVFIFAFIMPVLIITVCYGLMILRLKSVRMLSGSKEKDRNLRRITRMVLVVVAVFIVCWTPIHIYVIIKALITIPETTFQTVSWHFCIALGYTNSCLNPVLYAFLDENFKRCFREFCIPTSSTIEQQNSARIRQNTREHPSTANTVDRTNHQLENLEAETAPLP

In the case of `Oc1ccc2c(c1)[C@@]13CCCC[C@@]1(O)[C@@H](C2)N(CC1CCC1)CC3` [Butorphanol], in assay [1], half-maximal inhibition (IC50) required 3 ± 2 nM and the Emax amounted to 58 ± 5%.

In assay [2], `C[C@H]1[C@H]2Cc3ccc(O)cc3[C@]1(C)CCN2CC1CC1` [Cyclazocine] had a Ki of 0.22 ± 0.02 nM. In assay [1], half-maximal inhibition (IC50) was put at 21 ± 8 nM and the Emax amounted to 37 ± 2%.

For `C[C@@H](NC(=O)[C@@H](N)Cc1ccc(O)cc1)C(=O)NCC(=O)N(C)[C@@H](Cc1ccccc1)C(=O)NCCO` [DAMGO], in assay [1], the “Max Inhibition” value worked out at 58 ± 5%.

Turning to `C[C@@]12CCCCC[C@@H](Cc3ccc(O)cc31)[C@@H]2N` [Dezocine], in assay [1], 1.3 ± 0.6 nM corresponded to half-maximal inhibition (IC50) and the Emax stood at 43 ± 2%.

Consider `C[C@H]1[C@H]2Cc3ccc(O)cc3[C@]1(C)CCN2C` [Metazocine], for which, in assay [1], the IC50 is 2 ± 0.1 nM and the Emax came to 41 ± 4%.

On to `C=CCN1CC[C@]23c4c5ccc(O)c4O[C@H]2[C@@H](O)C=C[C@H]3[C@H]1C5` [Nalorphine], for which, in assay [1], the IC50 stood at 2.7 ± 1.4 nM and the Emax worked out at 50 ± 2%.

On to `C=C1C[C@H](C)[C@H]2[C@H]3Cc4ccc(O)cc4[C@@]2(CCN3CC2CCC2)C1` [Xorphanol], for which, in assay [1], the “Max Inhibition” value was 29 ± 2 ⊕⊕^## %. Moreover, the IC50 in assay [1] (read-out: IC50 ± SEM) worked out at 3.4 ± 1.7 nM.

For the origin of these results see paper PMC140036 (BMC Pharmacology, 2003).
